# What was measured:
# [1] = type: in vivo; conditions: rats
# Method: Dosage amount and interval of administration of compounds of the present invention can be adjusted individually to reduce seizure frequency, duration or intensity. For example, doses of 250 mg/kg 2-DG or less to higher as tolerated can be used to reduce seizure frequency and minimize toxicity. Doses of as much as 2000 mg/kg 2-DG are well tolerated in rats. […] A practitioner skilled in the art can adjust dosage in the range up to 500-600 mg/kg 2-DG and the timing of administration to produce prolonged anticonvulsant and antiepileptic effects. Efficacious dosage amounts can be adjusted to about 14 mg/kg 2-DG in children and 40 mg/kg 2-DG in adults, using therapeutic efficacy measurements (e.g., reduction in frequency or severity of seizures) as a criterion for establishing effective dosage levels.
# [2] = system: BDNF; assay: QRT-PCR of hippocampal tissue from kindled rats, BDNF; type: in vivo, rat
# Source text: (§1) Values plotted are BDNF or TrkB expression over Actin using rat hippocampal cDNA from an untreated rat for a standard curve. Specifically, mRNA was extracted from hippocampus tissue from rats treated with 2-DG or untreated control rats subjected to kindling stimulation to mimic epilepsy. […] The levels of actin mRNA were not affected by 2-DG treatment. Importantly, the differences in expression of BDNF or TrkB in the absence or presence of 2DG were present after 5 ADs in association with a large difference in AD threshold between 2DG-treated and control rats (FIG. 3 lanes 5 versus 6 and 7 versus 8).
# [3] = system: TrkB; assay: QRT-PCR of hippocampal tissue from kindled rats, TrkB; type: in vivo, rat
# Source text: as §1
# [4] = system: actin; assay: QRT-PCR of hippocampal tissue from kindled rats, actin; type: in vivo, rat; conditions: hippocampus, 2-DG treatment versus control
# Source text: as §1
# [5] = system: hippocampal gene expression; assay: microarray hybridization of rat hippocampus mRNA (Affymetrix Rat Array); type: in vivo; conditions: of 35,000 genes comprising the microarray
# Method: In view of the results with BDNF and TrkB, hippocampal gene expression changes in rats treated with and without 2-DG were assessed by hybridization using microarrays (Affymetrix Rat Array (35,000 genes represented), Affymetrix, Santa Clara, Calif.). Hybridizations were performed according to the manufacturer's instructions using mRNA isolated from rat hippocampus from rats following dietary restriction or treatment with drug (2-DG). […] Genes of interest in disease states detected in these experiments include but are not limited to snail (NM_005985), MDR3/MRP3 (GenBank Accession No. M23234), MTA1 (NM_004689), DCC (NM_005215), Netrin (U75586), and β-catenin (X87838)(metastasis); BDNF (NM_170731) and TrkB (NM_006180) (neurological disorders) and atrial natriuretic peptide (ANP; NM_000907)(cardiac hypertrophy/myocardial infarction).
# [6] = system: NRSF mediated repression; assay: gal4-NRSF luciferase reporter (G5-TATA-Luc) in JTC-19 cells; type: cell-based, rat; conditions: JTC-19 cells
# [7] = system: NRSF target genes Sodium Type II (NaV1.2), BDNF, CHRM4; assay: QRT-PCR of chromosomal NRSF target genes in JTC-19 cells; type: cell-based, rat; conditions: 1 mM 2-DG for 24 hrs
# Source text: (§2) FIG. 5 are graphs showing the results of quantitative reverse-transcriptase-PCR experiments, wherein NaV1.2 is sodium type II (NaV1.2); BDNF is Brain Derived Neurotrophic Factor (BDNF) and CHRM4 is muscarinic acetylcholine receptor type 4 (CHRM4), all genes repressed by NRSE/NRSF, and actin (not an NRSF target).
# (§3) Firefly luciferase measurements were normalized to co-transfected pRL-TK and expressed as fold repression (gal4 DBD/gal4-NRSF). Values are the average of at least three experiments performed in triplicate. Error bars indicate standard errors. […] In these experiments, cells were grown in the presence or absence of 1 mM 2-DG for 24 hrs, harvested and RNA subjected to QRT-PCR with primers to the NRSF target genes Sodium Type II (NaV1.2), Brain Derived Neurotrophic Factor (BDNF) and Muscarinic Acetylcholine Receptor Type 4 (CHRM4) or actin (not an NRSF target). Rat hippocampal cDNA was used to generate a standard curve and values plotted are microliter equivalents of hippocampal cDNA.
# [8] = system: actin (not an NRSF target); assay: QRT-PCR of actin in JTC-19 cells; type: cell-based, rat; conditions: 1 mM 2-DG for 24 hrs
# Source text: as §2, §3
# [9] = system: CHRM4; assay: ChIP in JTC-19 cells grown with 2-DG or glucose, CHRM4; type: cell-based, rat
# Source text: To determine whether 2-DG mediated suppression of BDNF levels was associated with a decreased level of histone H3 Lysine^9 acetylation, hippocampii from 2-DG treated or control rats were crosslinked with 1% formaldehyde and subjected to chromatin immunoprecipitation assays (ChIPs), performed as in Roopra et al.(2004, Mol Cell 14: 727-38) with an antibody specific to acetylated H3-K9. The graphs shown in FIGS. 10A through 10C show the results of experiments in which the amount (in ng) of DNA associated with nucleosomes comprising modified or unmodified H3 histone proteins was detected for an endogenous, NRSE/NRSF-regulated gene (CHRM4) in JTC-19 cells grown in the presence of 2-DG or glucose. […] However, the amount of CtBP recruited to CHRM4, the NRSF target gene, increased 5-fold in the presence of 2-DG.
# [10] = system: actin promoter; assay: ChIP on hippocampi of rats administered 2-DG or saline, actin promoter; type: in vivo; conditions: rat hippocampi, without regard to the glycolytic state
# Source text: FIG. 10I is a graph of CHIP assays performed on hippocampi from rats administered 2-DG or saline for 2 weeks and using a cocktail of anti-CtBP1 and anti-CtBP2 antibody or sham antibody and primers flanking the BDNF NRSE or actin promoter. Data is plotted as quantity of DNA specifically precipitated in picograms.
# The above results predicted that CtBP would be present at the BDNF NRSF binding site in rat hippocampi and that occupancy at this site should be augmented in the presence of 2-DG. To test this prediction, ChIP assays were performed using anti-CtBP antibody on chromatin isolated from 2DG-treated rats as above. Hippocampi from rats administered 2-DG or saline for 2 weeks were subjected to ChIP with a cocktail of anti-CtBP1 and anti-CtBP2 antibody or sham antibody and primers flanking the BDNF NRSE or actin promoter. […] CtBP was not detected at the actin promoter without regard to the glycolytic state of the animal, as expected for a gene not under NRSF regulatory control.
# [11] = rats that experienced 3 Class V seizures
compound,measurement,setting,value
"O=CC[C@@H](O)[C@H](O)[C@H](O)CO [2-DG, 2-deoxy-D-glucose]",well tolerated dose,[1],≤ 2000 mg/kg
same,hippocampal BDNF expression compared to control animals,"[2]; QRT-PCR, expression over actin, FIG. 3 lanes 1 versus 2",significantly reduced
same,difference in expression of BDNF in absence or presence of 2DG,[2]; after 5 ADs,present
same,"BDNF expression, 2DG-treated versus control rats",[2]; [11],no difference in expression
same,hippocampal TrkB expression compared to control animals,"[3]; QRT-PCR, expression over actin, FIG. 3 lanes 3 versus 4",significantly reduced
same,difference in expression of TrkB in absence or presence of 2DG,[3]; after 5 ADs,present
same,"TrkB expression, 2DG-treated versus control rats",[3]; [11],no difference in expression
same,levels of actin mRNA,[4],not affected
same,number of genes down-regulated by drug treatment,[5],349
same,number of genes transcriptionally upregulated by drug treatment,[5],241
same,repression by NRSF of luciferase reporter,[6]; 2-DG added to pyruvate and glucose,augmented this effect
same,repression of luciferase reporter gene expression by NRSF (fold repression gal4 DBD/gal4-NRSF),[6]; 16 hrs,increased repression
same,repression by NRSF of luciferase reporter,[6]; in the absence of glucose,unable to further augment repression
same,repression by NRSF of luciferase reporter,[6]; in the presence of glucose,increased repression
same,expression of chromosomal NRSF target genes,[7],repressed
same,actin levels,[8],unaffected
same,H3-Lys9 acetylation levels at the CHRM4 promoter,[9]; in the presence of 2-DG,reduced
same,amount of mono- and di-methyl K9,[9]; in the presence of 2-DG,increased
same,amount of unmodified (de-acetylated) H3K9,[9]; in the presence of 2-DG,increased
same,increase of amount of CtBP recruited to CHRM4,[9]; in the presence of 2-DG,5 fold
same,"amount of NRSF, G9a and SIN3 at NRSF target genes",[9]; presence or absence of 2-DG,does not change
same,CtBP at the actin promoter,[10],not detected

# — patent US7557085B2, “Metabolic-based methods for modulating gene expression” (Wisconsin Alumni Research Foundation, priority 2005, dated 2009)
